Data on one compound can be found in ChEMBL document CHEMBL1147956 (Bioorg Med Chem Lett, 2007).

In this experiment the target is T1, Inhibitor of nuclear factor kappa-B kinase subunit beta (Homo sapiens, UniProt O14920).
T1 sequence (O14920 whole entry): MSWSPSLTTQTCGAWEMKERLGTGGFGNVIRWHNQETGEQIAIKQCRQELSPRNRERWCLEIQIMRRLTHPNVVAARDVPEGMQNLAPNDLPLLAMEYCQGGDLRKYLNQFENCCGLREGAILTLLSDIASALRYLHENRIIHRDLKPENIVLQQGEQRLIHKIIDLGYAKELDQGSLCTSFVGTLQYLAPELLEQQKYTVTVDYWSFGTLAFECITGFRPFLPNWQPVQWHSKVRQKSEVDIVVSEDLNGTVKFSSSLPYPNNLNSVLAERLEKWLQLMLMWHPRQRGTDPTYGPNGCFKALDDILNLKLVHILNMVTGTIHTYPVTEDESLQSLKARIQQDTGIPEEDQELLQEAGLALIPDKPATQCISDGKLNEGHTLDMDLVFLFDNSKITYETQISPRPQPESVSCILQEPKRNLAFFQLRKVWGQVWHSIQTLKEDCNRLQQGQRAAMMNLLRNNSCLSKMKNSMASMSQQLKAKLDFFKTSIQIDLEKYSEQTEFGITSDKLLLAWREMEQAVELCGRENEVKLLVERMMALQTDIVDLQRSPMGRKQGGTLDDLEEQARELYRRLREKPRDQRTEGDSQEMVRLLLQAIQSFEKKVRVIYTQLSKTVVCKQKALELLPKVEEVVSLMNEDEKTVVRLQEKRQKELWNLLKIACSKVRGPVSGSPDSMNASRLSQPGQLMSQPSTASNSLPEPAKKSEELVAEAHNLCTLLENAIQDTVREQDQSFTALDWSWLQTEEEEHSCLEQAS
Kind of experiment: Inhibition of IKK-beta after 30 mins.

Broadly, the IC50 is the point on the concentration scale where inhibition reaches its midpoint. Low readings indicate greater potency, high ones weaker potency. In turn, `Cc1cc(-c2c3ccccc3c(Br)c3sc(C)c(C)c23)cc(C)c1O[C@H](Cc1ccccc1)C(=O)O` [ERTIPROTAFIB] displayed an IC50 of 400 nM.
